From patent publication US7563792B2, “Biguanide and dihydrotriazine derivatives” (priority 2002, dated 2009)

What was measured:
[1] = system: Plasmodium berghei (KBG strain); test: Mouse malaria model (modified Thomson model), percent survival; type: in vivo, CD-1 mice; details: twice a day for 3 days from day 3 post infection, orally or subcutaneously (route not stated), P. berghei infected mice
Procedure: Seven (7) mice are typically used in each experimental group. The mice are housed 3 to 4 per cage and are maintained at a temperature of […] with a 12-hour day light cycle. The mice are fed a standard Ralston Purina® mouse chow and given water ad. lib. Their cages and water bottles were changed twice a week.
Preparation of the test compounds oral administration involved grinding the material with a mortar and pestle before diluting in 0.5% hydroxyethylcellulose-Tween 80 (polyoxyethylene (20) sorbitan mono-oleate) for oral administration. For subcutaneous administration, the test compounds were suspended in peanut oil.
The mice were infected intraperitoneally with 50,000 red blood cells infected with a drug-sensitive strain of Plasmodium berghei (KBG strain) on day 0. The inoculum was obtained from a donor mouse having a parasitemia between 5% and 10%.
The compounds were administered according to the weight of the mice. The mice were weighed each day before the drugs were administered. Test compounds are given in a volume of 10 ml/kg of body weight. Compounds were administered either orally or subcutaneously twice a day (6 hours apart) for 3 days starting on the 3rd day post infection. Blood films were taken on day 6 post-infection and twice weekly for 30 days. The level of parasites (parasitemia) was determined from the Giemsa stained blood films.
Antimalarial activity was quantified by a percent survival calculated for each treated group on Day 31.

Mycobacterium avium = test: In vitro MIC against Mycobacterium avium isolates, microtiter plate, turbidity; type: cell-based; details: 18 to 21 days
[2] = system: Mycobacterium tuberculosis; test: In vitro MIC against Mycobacterium tuberculosis, microtiter plate, turbidity; type: cell-based; details: Mycobacterium tuberculosis strain Erdmann; 37° C., 18 to 21 days
Procedure: Antituberculosis activities were assessed in vitro using the biologically active dihydrotriazine metabolites of the imidodicarbonimidic diamides. The assay methodology is detailed as follows:
To tissue culture treated 96-well microtiter plates were added 20 μl of a solution of test compound. The plates were allowed to dry in an incubator at a temperature between 50° to 60° C. for 20 to 30 minutes. Then the plates were subjected to UV light for 15 minutes to kill bacteria. The plates were generally used within 2-3 days of being made. To each well was added 100 μl of culture broth and the appropriate strain of Mycobacterium tuberculosis or Mycobacterium avium. The plates were then incubated at 37° C. for between 18 days to 21 days. Growth was assessed by turbidity measurement and MICs reported in μg/ml.

Compound | % SURVIVAL AT DAY 31 ([1]; dose 4 mg/kg) [%] | % SURVIVAL AT DAY 31 ([1]; dose 8 mg/kg) [%] | % SURVIVAL AT DAY 31 ([1]; dose 16 mg/kg) [%] | % SURVIVAL AT DAY 31 ([1]; dose 32 mg/kg) [%] | % SURVIVAL AT DAY 31 ([1]; dose 64 mg/kg) [%] | MIC (Mycobacterium avium; Mycobacterium avium strain 101, 37° C.) [µg/mL] | MIC (Mycobacterium avium; Mycobacterium avium strain 3404-4, 37° C.) [µg/mL] | MIC (Mycobacterium avium; Mycobacterium avium strain Farino, 37° C.) [µg/mL] | MIC (Mycobacterium avium; Mycobacterium avium strain LPR, 37° C.) [µg/mL] | MIC [2] [µg/mL]
1-(3-(4-trifluoromethoxyphenoxy)propyloxy)-5-isopropyl biguanide hemisuccinate [Compound of Example 5] | 0 | 14 | 86 | 100 | 100 | – | – | – | – | –
Cl.N=C(NOCCCOc1ccc(OC(F)(F)F)cc1)NC(=N)NC1CC1 [Compound of Example 6, 1-(3-(4-trifluoromethoxyphenoxy)propyloxy)-5-cyclopropylbiguanide hydrochloride] | 0 | 14 | 43 | 71 | 100 | – | – | – | – | –
CC1(C)NC(=N)NC(=N)N1OCCCOc1ccc(OC(F)(F)F)cc1.Cl [Metabolite of Compound of Example 5, 6,6-Dimethyl-1-[3-(4-trifluoromethoxy-phenoxy)-propoxy][1,3,5]triazinane-2,4-diylidenediamine hydrochloride] | – | – | – | – | – | 3.1 | 0.6 ± 0.3 | 1 ± 0.85 | 37.5 ± 17.7 | 19
